{"source": "patent US20220409620A1", "about": "“REDUCING IMMUNOGENICITY TO PEGLOTICASE” (Horizon Pharma Rheumatology LLC, priority 2016, published 2022)", "origin": "cited, not measured here", "system": "patients", "conditions": "patients treated with allopurinol; cited from earlier work", "data": [{"compound": "Oc1ncnc2[nH]ncc12", "note": "[allopurinol]", "values": [{"measurement": "patients developing allergic reactions", "value": "Approximately 2%"}, {"measurement": "severe hypersensitivity syndrome", "value": "about 0.4%"}]}]}
